Ten molecules from publication PMC7664637, “In Vitro and In Silico Evaluation of Anticancer Activity of New Indole-Based 1,3,4-Oxadiazoles as EGFR and COX-2 Inhibitors” (Molecules, 2020) can be followed below.

One data set deals with HCT116 cells. The experiment in a line: Detection of cell death, Hoechst 33342/annexin V/ethidium homodimer III staining. The format is cell-based, human. As to conditions: 10 μM, 12 h. The method, then: The cells were then briefly washed twice with 1× binding buffer, a staining solution containing 50 μL of 1× binding buffer, 5 μL of FITC-Annexin V solution, 5 μL of ethidium homodimer III solution, and 5 μL of Hoechst 33342 solution and incubated for 15 min at room temperature in the dark. Then, cells were washed with 1× binding buffer and analyzed by a Biorevo Fluorescence BZ-9000 all-in-one fluorescence microscope (Keyence, Osaka, Japan). Numbers of healthy cells (Hoechst 33342), apoptotic cells (Annexin V), late apoptotic or necrotic cells (Annexin V and Ethidium homodimer III), and necrotic cells (Ethidium homodimer III) were counted, as previously described.
(B) A total of approximately 100 stained cells were selected randomly in each experiment of (A) and were classified into 4 types: “alive” (blue), “apoptosis” (green), “necrosis or late apoptosis” (both green and red), and “necrosis” (red). […] Data from three independent experiments are shown as means ± standard deviations and p values were determined using Student’s test.

A further data set addresses T1, EGFR (Homo sapiens, UniProt P00533).
T1 construct: purchased Promega Corporation
Nature of the data set: Kinase profiling assay (ADP-Glo), EGFR. The format is biochemical. Conditions: 1 h, room temperature. How it is done: (§1) The kinase profiling assay protocol was applied according to the manufacturer’s instructions (Promega Corporation, Madison, WI, USA) with modification. […] Then, the reaction of the kinase was performed using 2 µL of compound solution at varying concentrations (0.1–100 µM), 4 µL of kinase working stock, and 4 µL of ATP/substrate working stock in the 384-well plate. After 1 h of incubation at room temperature, the activity of kinase was detected using ADP-Glo kinase assay (Promega Corporation, Madison, WI, USA), and kinase inhibitory activity of compounds in dose–response mode was measured by an Infinite M1000 luminescence plate reader (Tecan, Groding, Austria).

In a further data set the target is T2, HER2 (Homo sapiens, UniProt P04626).
T2 construct: purchased Promega Corporation
T2 sequence (P04626 23-1255): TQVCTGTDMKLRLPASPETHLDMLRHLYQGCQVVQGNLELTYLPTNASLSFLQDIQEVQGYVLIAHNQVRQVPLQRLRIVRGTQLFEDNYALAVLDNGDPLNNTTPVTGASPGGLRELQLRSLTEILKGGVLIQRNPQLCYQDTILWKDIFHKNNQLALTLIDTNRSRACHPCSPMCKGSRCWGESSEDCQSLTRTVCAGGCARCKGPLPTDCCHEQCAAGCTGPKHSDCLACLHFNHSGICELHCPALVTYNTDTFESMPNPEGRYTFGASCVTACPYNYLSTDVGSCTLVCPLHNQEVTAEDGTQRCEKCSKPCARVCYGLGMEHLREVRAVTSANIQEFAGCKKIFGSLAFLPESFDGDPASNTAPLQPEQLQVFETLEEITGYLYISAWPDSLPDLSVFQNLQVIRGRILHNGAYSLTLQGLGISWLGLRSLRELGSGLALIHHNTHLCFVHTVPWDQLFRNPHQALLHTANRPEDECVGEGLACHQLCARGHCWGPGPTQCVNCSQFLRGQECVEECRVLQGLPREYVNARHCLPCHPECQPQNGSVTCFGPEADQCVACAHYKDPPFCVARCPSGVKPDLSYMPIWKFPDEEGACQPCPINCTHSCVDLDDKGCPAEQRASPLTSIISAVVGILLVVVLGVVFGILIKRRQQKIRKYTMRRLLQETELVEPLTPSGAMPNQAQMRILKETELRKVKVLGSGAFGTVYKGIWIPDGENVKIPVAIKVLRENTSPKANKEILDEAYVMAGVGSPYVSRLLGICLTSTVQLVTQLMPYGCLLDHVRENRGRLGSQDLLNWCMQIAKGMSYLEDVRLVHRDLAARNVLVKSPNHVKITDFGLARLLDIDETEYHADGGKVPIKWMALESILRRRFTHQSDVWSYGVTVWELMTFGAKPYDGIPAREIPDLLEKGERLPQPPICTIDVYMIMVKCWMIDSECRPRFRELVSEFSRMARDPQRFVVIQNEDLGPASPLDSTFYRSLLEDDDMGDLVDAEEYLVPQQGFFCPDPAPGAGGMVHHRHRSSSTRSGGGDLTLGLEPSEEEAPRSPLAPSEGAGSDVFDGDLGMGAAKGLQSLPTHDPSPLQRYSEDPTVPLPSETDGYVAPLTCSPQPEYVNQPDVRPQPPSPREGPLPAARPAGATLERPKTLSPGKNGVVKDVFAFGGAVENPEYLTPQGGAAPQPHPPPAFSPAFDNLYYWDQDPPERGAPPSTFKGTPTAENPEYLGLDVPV
Nature of the data set: Kinase profiling assay (ADP-Glo), HER2. The format is biochemical. Conditions: 1 h, room temperature. The method, then: as §1

The target of the next data set is T3, HER4 (Homo sapiens, UniProt Q15303).
T3 construct: purchased Promega Corporation
Nature of the data set: Kinase profiling assay (ADP-Glo), HER4. Conditions: 1 h, room temperature. The format is biochemical. How it is done: as §1

For a further data set, the target named is T4, IGF1R (Homo sapiens, UniProt P08069).
T4 construct: purchased Promega Corporation
T4 sequence (P08069 31-1367): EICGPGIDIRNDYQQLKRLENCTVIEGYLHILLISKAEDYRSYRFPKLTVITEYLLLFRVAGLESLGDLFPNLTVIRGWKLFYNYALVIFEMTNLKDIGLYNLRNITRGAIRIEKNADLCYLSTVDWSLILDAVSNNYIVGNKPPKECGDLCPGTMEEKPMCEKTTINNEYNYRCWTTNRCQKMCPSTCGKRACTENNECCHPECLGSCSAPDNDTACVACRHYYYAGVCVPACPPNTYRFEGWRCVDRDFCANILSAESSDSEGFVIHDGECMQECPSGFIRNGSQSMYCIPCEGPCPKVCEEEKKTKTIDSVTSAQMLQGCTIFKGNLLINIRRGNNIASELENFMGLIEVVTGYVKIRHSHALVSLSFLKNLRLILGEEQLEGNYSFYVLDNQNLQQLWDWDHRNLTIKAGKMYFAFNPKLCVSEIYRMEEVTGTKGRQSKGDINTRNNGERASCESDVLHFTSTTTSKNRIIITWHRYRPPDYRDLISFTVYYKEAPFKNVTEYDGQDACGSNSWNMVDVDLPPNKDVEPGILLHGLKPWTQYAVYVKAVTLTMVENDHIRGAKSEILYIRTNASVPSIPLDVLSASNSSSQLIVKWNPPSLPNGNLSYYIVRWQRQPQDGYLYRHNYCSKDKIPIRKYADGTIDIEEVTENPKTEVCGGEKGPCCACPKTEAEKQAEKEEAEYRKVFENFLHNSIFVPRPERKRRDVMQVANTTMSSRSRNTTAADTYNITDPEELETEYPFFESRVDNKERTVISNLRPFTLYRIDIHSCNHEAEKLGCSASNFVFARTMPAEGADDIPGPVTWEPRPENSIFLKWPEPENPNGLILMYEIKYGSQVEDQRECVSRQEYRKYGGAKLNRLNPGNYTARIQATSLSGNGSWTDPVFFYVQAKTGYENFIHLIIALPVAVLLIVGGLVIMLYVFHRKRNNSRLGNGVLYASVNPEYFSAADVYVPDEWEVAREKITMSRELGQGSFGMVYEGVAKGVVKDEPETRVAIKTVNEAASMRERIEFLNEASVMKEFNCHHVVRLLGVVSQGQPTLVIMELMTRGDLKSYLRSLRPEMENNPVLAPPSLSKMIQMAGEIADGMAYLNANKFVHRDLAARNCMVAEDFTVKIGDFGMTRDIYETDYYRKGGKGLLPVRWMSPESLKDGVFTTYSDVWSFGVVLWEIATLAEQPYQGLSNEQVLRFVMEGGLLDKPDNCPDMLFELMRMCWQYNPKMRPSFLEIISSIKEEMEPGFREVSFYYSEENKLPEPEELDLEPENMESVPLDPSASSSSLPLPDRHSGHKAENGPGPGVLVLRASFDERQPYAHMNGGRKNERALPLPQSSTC
The experiment in a line: Kinase profiling assay (ADP-Glo), IGF1R. Conditions: 1 h, room temperature. The format is biochemical. How it is done:
as §1

For another data set, the target named is T5, InsR (Homo sapiens, UniProt P06213).
T5 construct: purchased Promega Corporation
T5 sequence (P06213 28-1382): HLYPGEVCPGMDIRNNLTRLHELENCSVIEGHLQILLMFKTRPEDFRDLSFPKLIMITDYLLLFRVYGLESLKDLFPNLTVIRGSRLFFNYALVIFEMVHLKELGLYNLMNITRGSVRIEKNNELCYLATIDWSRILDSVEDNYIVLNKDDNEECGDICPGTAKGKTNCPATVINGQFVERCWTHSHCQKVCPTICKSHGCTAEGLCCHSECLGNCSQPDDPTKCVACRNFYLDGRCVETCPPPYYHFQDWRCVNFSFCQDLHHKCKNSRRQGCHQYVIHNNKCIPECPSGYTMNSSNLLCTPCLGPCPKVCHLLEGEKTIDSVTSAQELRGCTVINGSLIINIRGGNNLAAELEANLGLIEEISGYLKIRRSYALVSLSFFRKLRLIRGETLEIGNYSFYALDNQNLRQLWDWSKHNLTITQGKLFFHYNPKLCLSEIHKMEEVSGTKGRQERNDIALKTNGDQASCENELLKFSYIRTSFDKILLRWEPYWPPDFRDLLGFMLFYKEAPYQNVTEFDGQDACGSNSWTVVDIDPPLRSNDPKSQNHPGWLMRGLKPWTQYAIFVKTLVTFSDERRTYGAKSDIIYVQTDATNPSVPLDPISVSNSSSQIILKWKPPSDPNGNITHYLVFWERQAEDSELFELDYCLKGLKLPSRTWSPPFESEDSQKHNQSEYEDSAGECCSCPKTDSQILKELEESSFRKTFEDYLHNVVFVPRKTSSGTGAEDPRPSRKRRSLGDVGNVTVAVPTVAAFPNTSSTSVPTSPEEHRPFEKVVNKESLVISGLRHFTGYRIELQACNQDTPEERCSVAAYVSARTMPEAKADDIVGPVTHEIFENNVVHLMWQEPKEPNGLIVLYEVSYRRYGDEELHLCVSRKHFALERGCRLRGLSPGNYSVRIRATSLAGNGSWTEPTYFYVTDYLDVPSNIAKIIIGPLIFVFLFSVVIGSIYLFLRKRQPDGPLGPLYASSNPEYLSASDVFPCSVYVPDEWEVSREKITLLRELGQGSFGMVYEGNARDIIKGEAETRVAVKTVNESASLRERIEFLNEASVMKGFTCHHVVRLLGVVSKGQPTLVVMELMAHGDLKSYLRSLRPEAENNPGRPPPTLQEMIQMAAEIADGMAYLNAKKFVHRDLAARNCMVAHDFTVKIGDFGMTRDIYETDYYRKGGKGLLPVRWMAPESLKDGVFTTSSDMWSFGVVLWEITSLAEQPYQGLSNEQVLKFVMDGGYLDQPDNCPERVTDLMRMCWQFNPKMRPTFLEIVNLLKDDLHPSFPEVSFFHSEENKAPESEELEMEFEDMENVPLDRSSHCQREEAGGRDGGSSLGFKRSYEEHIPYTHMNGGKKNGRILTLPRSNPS
The experiment in a line: Kinase profiling assay (ADP-Glo), InsR. The format is biochemical. Conditions: 1 h, room temperature. How it is done: as §1

For a further data set, the target named is T6, KDR (Homo sapiens, UniProt P35968).
T6 construct: purchased Promega Corporation
Nature of the data set: Kinase profiling assay (ADP-Glo), KDR. The format is biochemical. As to conditions: 1 h, room temperature. How it is done: as §1

Another data set concerns the target T7, PDGFRα (Homo sapiens, UniProt P16234).
T7 construct: purchased Promega Corporation
The experiment in a line: Kinase profiling assay (ADP-Glo), PDGFRα. The format is biochemical. As to conditions: 1 h, room temperature. How it is done: as §1

Another data set has as its target T8, PDGFRβ (Homo sapiens, UniProt P09619).
T8 construct: purchased Promega Corporation
Nature of the data set: Kinase profiling assay (ADP-Glo), PDGFRβ. The format is biochemical. Conditions: 1 h, room temperature. The method, then:
as §1

The subject of data set [1] is A549 human lung adenocarcinoma cell line. The experiment in a line: MTT cytotoxicity assay, A549. As to conditions: A549, 48 h, read-out: IC50 A549 Cell Line.
Procedure: (§2) At the end of this period, supernatants were removed, and 100 μL DMSO was added to each well to solubilize the formazan crystals. The absorbance of the solution was determined on an Infinite M1000 plate reader (Tecan, Mannedorf, Switzerland) at a wavelength of 550 nm with background subtraction at 630 nm.
For data set [2], the system named is HCT116 human colorectal carcinoma cell line. The experiment in a line: MTT cytotoxicity assay, HCT116. As to conditions: HCT-116, 48 h, read-out: IC50 HCT-116 Cell Line.
Procedure: as §2
For data set [3], the system named is peripheral blood mononuclear cells (PBMCs). The experiment in a line: MTT cytotoxicity assay, PBMCs (tumor selectivity). Conditions: Homo sapiens, PBMC, 48 h, read-out: IC50 PBMCs.
Procedure: as §2
The test system of data set [4] is Jurkat human leukemic T-cells. The experiment in a line: MTT cytotoxicity assay, Jurkat cells (tumor selectivity). As to conditions: 48 h, read-out: IC50 Jurkat Cells.
Procedure: as §2
A further data set addresses T9, COX-1 (Ovis aries, UniProt P05979).
T9 sequence (P05979 25-600): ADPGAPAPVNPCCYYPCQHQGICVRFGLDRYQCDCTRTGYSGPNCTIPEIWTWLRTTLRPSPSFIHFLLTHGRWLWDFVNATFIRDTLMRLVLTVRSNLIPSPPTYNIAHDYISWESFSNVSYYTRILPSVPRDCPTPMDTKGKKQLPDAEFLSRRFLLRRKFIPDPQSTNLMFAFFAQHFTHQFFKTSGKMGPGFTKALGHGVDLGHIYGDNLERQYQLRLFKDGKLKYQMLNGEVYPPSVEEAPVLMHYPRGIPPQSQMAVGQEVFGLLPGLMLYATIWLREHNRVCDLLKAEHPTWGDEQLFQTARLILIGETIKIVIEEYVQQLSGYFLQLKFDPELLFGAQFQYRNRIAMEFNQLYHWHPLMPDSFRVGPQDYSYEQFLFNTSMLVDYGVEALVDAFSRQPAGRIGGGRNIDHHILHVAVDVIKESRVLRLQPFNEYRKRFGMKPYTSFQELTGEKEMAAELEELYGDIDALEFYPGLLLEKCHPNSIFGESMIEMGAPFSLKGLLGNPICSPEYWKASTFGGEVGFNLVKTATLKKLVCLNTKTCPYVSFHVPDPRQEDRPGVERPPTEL
The experiment in a line: In vitro COX inhibition assay (COX (ovine/human) inhibitor screening kit), COX-1.

In data set [5] the test system is A375 human melanoma cell line. The experiment in a line: MTT cytotoxicity assay, A375. Conditions: A-375, 48 h, read-out: IC50 A375 Cell Line.
Procedure: as §2

T1 sequence (P00533 25-1210): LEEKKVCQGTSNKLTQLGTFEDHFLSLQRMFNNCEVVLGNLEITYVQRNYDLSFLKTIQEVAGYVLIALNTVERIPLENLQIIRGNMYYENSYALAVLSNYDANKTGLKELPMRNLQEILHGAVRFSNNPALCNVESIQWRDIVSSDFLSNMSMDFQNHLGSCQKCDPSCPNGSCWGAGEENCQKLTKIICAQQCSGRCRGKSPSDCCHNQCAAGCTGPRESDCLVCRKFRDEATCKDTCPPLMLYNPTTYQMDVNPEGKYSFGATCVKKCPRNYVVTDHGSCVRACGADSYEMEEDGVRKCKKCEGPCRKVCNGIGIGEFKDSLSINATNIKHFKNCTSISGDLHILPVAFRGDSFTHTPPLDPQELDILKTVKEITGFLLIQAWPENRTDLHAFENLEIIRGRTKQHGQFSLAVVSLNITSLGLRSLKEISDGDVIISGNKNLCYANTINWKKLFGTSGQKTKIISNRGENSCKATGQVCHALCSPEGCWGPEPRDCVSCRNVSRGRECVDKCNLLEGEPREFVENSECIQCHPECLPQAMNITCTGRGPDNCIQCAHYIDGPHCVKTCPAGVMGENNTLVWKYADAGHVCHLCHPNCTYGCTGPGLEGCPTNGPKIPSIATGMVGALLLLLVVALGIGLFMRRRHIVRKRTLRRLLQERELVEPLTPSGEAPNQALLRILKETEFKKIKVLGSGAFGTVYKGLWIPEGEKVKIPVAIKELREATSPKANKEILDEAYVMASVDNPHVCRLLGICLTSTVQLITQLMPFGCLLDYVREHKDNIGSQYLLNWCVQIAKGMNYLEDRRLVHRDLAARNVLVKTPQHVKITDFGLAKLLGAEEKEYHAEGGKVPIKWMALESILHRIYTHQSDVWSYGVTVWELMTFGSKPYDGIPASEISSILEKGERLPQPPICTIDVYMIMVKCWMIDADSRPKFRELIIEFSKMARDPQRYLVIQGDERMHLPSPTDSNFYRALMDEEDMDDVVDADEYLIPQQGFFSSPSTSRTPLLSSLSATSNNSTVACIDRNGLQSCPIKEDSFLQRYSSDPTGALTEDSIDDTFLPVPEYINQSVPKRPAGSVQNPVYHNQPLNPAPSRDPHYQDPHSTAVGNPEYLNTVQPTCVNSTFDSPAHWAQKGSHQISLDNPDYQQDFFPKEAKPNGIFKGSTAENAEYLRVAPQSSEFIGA
Procedure for COX-1: Briefly, COX reactions were performed. […] The prostaglandins were quantified by ELISA.

Take `CCOc1ccc2nc(NC(=O)CSc3nnc(Cc4c[nH]c5ccccc45)o3)sc2c1` [Compound 2e, 2-[(5-((1H-Indol-3-yl)methyl)-1,3,4-oxadiazol-2-yl)thio]-N-(6-ethoxybenzothiazol-2-yl)acetamide]: the “apoptosis (apoptotic cells)” value with HCT116 cells was found to be 28.35%. Moreover, the “late apoptotic or necrotic effects” value in the data set with HCT116 cells was determined as 9.81%. Moreover, the IC50 on EGFR is 2.8 ± 0.52 µM; at HER2, over 30 µM; against HER4 it was 8.22 ± 1.64 µM; against IGF1R it was over 30 µM; against InsR it was 29.1 ± 4.66 µM; against KDR, over 30 µM. Besides, the IC50 against PDGFRα was over 30 µM; on PDGFRβ, 6.16 ± 1.58 µM; in data set [1], 9.62 ± 1.14 µM; in [2], 6.43 ± 0.72 µM; in data set [3], over 300 µM; in data set [4] it was 6.45 ± 1.02 µM. Half-maximal inhibition on COX-1 (IC50) was put at 73.5 ± 2.12 µM.

Take `C#Cc1cccc(Nc2ncnc3cc(OCCOC)c(OCCOC)cc23)c1` [Erlotinib, reference compound]: in the data set with HCT116 cells, the “apoptosis (apoptotic cells)” value came to 7.42%. Further, in the data set with HCT116 cells, the “late apoptotic or necrotic effects” value was 10.45%. Further, the half-maximal inhibitory concentration (IC50) is 19.4 ± 2.38 µM in [1], 23.8 ± 4.17 µM in data set [5], 45.7 ± 8.88 µM in data set [3] and 9.47 ± 2.15 µM in data set [4].

On to `O=C(CSc1nnc(Cc2c[nH]c3ccccc23)o1)Nc1nc2ccc(Br)cc2s1` [Compound 2c, 2-[(5-((1H-Indol-3-yl)methyl)-1,3,4-oxadiazol-2-yl)thio]-N-(6-bromobenzothiazol-2-yl)acetamide], for which the melting point was in the range of 240.6 to 241.5 °C. In [1], the IC50 worked out at 24.9 ± 1.96 µM. Further, in data set [5], the concentration for half-maximal inhibition (IC50) turned out to be 48.5 ± 5.78 µM. Moreover, the IC50 in [2] was over 100 µM.

Take `CCOC(=O)Cc1csc(NC(=O)CSc2nnc(Cc3c[nH]c4ccccc34)o2)n1` [Compound 2i, 2-[(5-((1H-Indol-3-yl)methyl)-1,3,4-oxadiazol-2-yl)thio]-N-[4-(ethoxycarbonylmethyl)thiazol-2-yl]acetamide]: the melting point lay within 158 to 158.6 °C. For the same molecule, the half-inhibitory concentration (IC50) in data set [1] amounted to 71.9 ± 10.3 µM. For the same molecule, the IC50 in data set [5] turned out to be 95.9 ± 12.4 µM. In addition, in [2], the IC50 was over 100 µM.

As for `O=C(CSc1nnc(Cc2c[nH]c3ccccc23)o1)Nc1nccs1` [Compound 2g, 2-[(5-((1H-Indol-3-yl)methyl)-1,3,4-oxadiazol-2-yl)thio]-N-(thiazol-2-yl)acetamide], the melting point was 177.4 to 178.2 °C. In addition, the IC50 in data set [1] was over 100 µM. For the same molecule, the IC50 in data set [5] was over 100 µM. The IC50 in data set [2] is over 100 µM.

`O=C(CSc1nnc(Cc2c[nH]c3ccccc23)o1)Nc1nc2ccccc2s1` [Compound 2a, 2-[(5-((1H-Indol-3-yl)methyl)-1,3,4-oxadiazol-2-yl)thio]-N-(benzothiazol-2-yl)acetamide]: the IC50 is 40.4 ± 7.74 µM in [1]; 65.1 ± 10.1 µM in data set [5]; 26.2 ± 1.75 µM in [2]; over 300 µM in [3]; 17.7 ± 3.59 µM in [4].

Take `O=C(CSc1nnc(Cc2c[nH]c3ccccc23)o1)Nc1nc2ccc(Cl)cc2s1` [Compound 2b, 2-[(5-((1H-Indol-3-yl)methyl)-1,3,4-oxadiazol-2-yl)thio]-N-(6-chlorobenzothiazol-2-yl)acetamide]: the half-maximal inhibitory concentration (IC50) is 60.7 ± 9.48 µM in data set [1], 37.6 ± 5.62 µM in [5] and over 100 µM in data set [2].

The molecule `O=C(CSc1nnc(Cc2c[nH]c3ccccc23)o1)Nc1ncc([N+](=O)[O-])s1` [Compound 2h, 2-[(5-((1H-Indol-3-yl)methyl)-1,3,4-oxadiazol-2-yl)thio]-N-[5-nitrothiazol-2-yl]acetamide] yielded a melting point of 233.9 to 234.5 °C. In addition, the IC50 in data set [1] is over 100 µM. Further, the concentration for half-maximal inhibition (IC50) in data set [5] is over 100 µM. In data set [2], the IC50 was over 100 µM.

Turning to `Cc1ccc2nc(NC(=O)CSc3nnc(Cc4c[nH]c5ccccc45)o3)sc2c1` [Compound 2d, 2-[(5-((1H-Indol-3-yl)methyl)-1,3,4-oxadiazol-2-yl)thio]-N-(6-methylbenzothiazol-2-yl)acetamide], the half-inhibitory concentration (IC50) was 36.9 ± 5.43 µM in data set [1]; 30.2 ± 3.12 µM in data set [5]; 18.2 ± 1.19 µM in data set [2]; over 300 µM in data set [3]; 21.1 ± 1.85 µM in [4].

For `O=C(CSc1nnc(Cc2c[nH]c3ccccc23)o1)Nc1nc2ccc([N+](=O)[O-])cc2s1` [Compound 2f, 2-[(5-((1H-Indol-3-yl)methyl)-1,3,4-oxadiazol-2-yl)thio]-N-(6-nitrobenzothiazol-2-yl)acetamide], the half-maximal inhibitory concentration (IC50) in data set [1], in [5] and in data set [2] was over 100 µM each time.
